From ChEMBL document CHEMBL4396913, “Synthesis and biological evaluation of hybrid quinolone-based quaternary ammonium antibacterial agents” (Eur J Med Chem, 2019)
In brackets after ≈: the same amount, converted by molar mass.

How the values were obtained:
[1] = target: T1, DNA gyrase (Escherichia coli) (UniProt P0AES6+P0AES4); assay: Inhibition of Escherichia coli DNA gyrase super-coiling activity using relaxed pNO1 DNA as substrate assessed as enzyme residual activity at 1 uM incubated for 30 mins by fluorescence assay relative to control; assay type: protein-complex assay
[2] = tested on: Pseudomonas aeruginosa; assay: Antibacterial activity against Pseudomonas aeruginosa ATCC 9027 cultured in MH medium assessed as reduction in bacterial growth incubated for 48 hrs by microbroth dilution method; assay type: functional; conditions: ATCC 9027, 48 h
[3] = tested on: Streptococcus pneumoniae; assay: Antibacterial activity against Streptococcus pneumoniae cultured in MH medium assessed as reduction in bacterial growth incubated for 48 hrs by microbroth dilution method; assay type: functional
[4] = tested on: Staphylococcus epidermidis; assay: Antibacterial activity against methicillin resistant Staphylococcus epidermidis ATCC 13199 cultured in MH medium assessed as reduction in bacterial growth incubated for 48 hrs by microbroth dilution method; assay type: functional; conditions: ATCC 13199, 48 h
[5] = tested on: HEK293; assay: Cytotoxicity against human HEK293 cells assessed as changes in cell morphology upto 20 uM incubated for 72 hrs by MTT assay; assay type: cell-based; conditions: hek293, 72 h
[6] = tested on: Staphylococcus aureus; assay: Antibacterial activity against Staphylococcus aureus ATCC 6538 cultured in MH medium assessed as reduction in bacterial growth incubated for 48 hrs by microbroth dilution method; assay type: functional; conditions: ATCC 6538, 48 h
[7] = tested on: Staphylococcus aureus; assay: Antibacterial activity against methicillin resistant Staphylococcus aureus N315 cultured in MH medium assessed as reduction in bacterial growth incubated for 48 hrs by microbroth dilution method; assay type: functional; conditions: N315, 48 h
[8] = tested on: Staphylococcus epidermidis; assay: Bactericidal activity against methicillin resistant Staphylococcus epidermidis ATCC 13199 cultured in MH medium assessed as reduction in bacterial survival incubated for 48 hrs by microbroth dilution method; assay type: functional; conditions: ATCC 13199, 48 h
[9] = tested on: Staphylococcus epidermidis; assay: Antibacterial activity against Staphylococcus epidermidis ATCC 14990 cultured in MH medium assessed as reduction in bacterial growth incubated for 48 hrs by microbroth dilution method; assay type: functional; conditions: ATCC 14990, 48 h
[10] = tested on: Serratia marcescens; assay: Bactericidal activity against Serratia marcescens ATCC 12795 cultured in MH medium assessed as reduction in bacterial survival incubated for 48 hrs by microbroth dilution method; assay type: functional; conditions: ATCC 12795, 48 h
[11] = tested on: Staphylococcus aureus; assay: Bactericidal activity against methicillin resistant Staphylococcus aureus 6347 cultured in MH medium assessed as reduction in bacterial survival incubated for 48 hrs by microbroth dilution method; assay type: functional; conditions: Staphylococcus aureus, 6347, 48 h
[12] = target: T1, DNA gyrase (Escherichia coli); assay: Inhibition of Escherichia coli DNA gyrase super-coiling activity using relaxed pNO1 DNA as substrate assessed as enzyme residual activity at 10 uM incubated for 30 mins by fluorescence assay relative to control; assay type: protein-complex assay
[13] = tested on: Bacillus spizizenii; assay: Bactericidal activity against Bacillus subtilis ATCC 6633 cultured in MH medium assessed as reduction in bacterial survival incubated for 48 hrs by microbroth dilution method; assay type: functional; conditions: ATCC 6633, 48 h
[14] = tested on: Staphylococcus aureus; assay: Bactericidal activity against methicillin resistant Staphylococcus aureus N315 cultured in MH medium assessed as reduction in bacterial survival incubated for 48 hrs by microbroth dilution method; assay type: functional; conditions: N315, 48 h
[15] = tested on: Pseudomonas aeruginosa; assay: Bactericidal activity against Pseudomonas aeruginosa ATCC 9027 cultured in MH medium assessed as reduction in bacterial survival incubated for 48 hrs by microbroth dilution method; assay type: functional; conditions: ATCC 9027, 48 h
[16] = tested on: Escherichia coli; assay: Bactericidal activity against Escherichia coli ATCC 8739 cultured in MH medium assessed as reduction in bacterial survival incubated for 48 hrs by microbroth dilution method; assay type: functional; conditions: ATCC 8739, 48 h
[17] = tested on: Proteus vulgaris; assay: Bactericidal activity against Proteus vulgaris NCTC 4635 cultured in MH medium assessed as reduction in bacterial survival incubated for 48 hrs by microbroth dilution method; assay type: functional; conditions: NCTC 4635, 48 h
[18] = tested on: Proteus vulgaris; assay: Antibacterial activity against Proteus vulgaris NCTC 4635 cultured in MH medium assessed as reduction in bacterial growth incubated for 48 hrs by microbroth dilution method; assay type: functional; conditions: NCTC 4635, 48 h
[19] = Lipophilicity, log k of the compound at 100 ug/ml by micellar electrokinetic chromatography; assay type: physicochemical
[20] = tested on: Staphylococcus aureus; assay: Bactericidal activity against Staphylococcus aureus ATCC 6538 cultured in MH medium assessed as reduction in bacterial survival incubated for 48 hrs by microbroth dilution method; assay type: functional; conditions: ATCC 6538, 48 h
[21] = tested on: HEK293; assay: Cytotoxicity against human HEK293 cells assessed as cell viability upto 20 uM incubated for 72 hrs by MTT assay; assay type: cell-based; conditions: hek293, 72 h
[22] = tested on: Staphylococcus epidermidis; assay: Bactericidal activity against Staphylococcus epidermidis ATCC 14990 cultured in MH medium assessed as reduction in bacterial survival incubated for 48 hrs by microbroth dilution method; assay type: functional; conditions: ATCC 14990, 48 h
[23] = tested on: Enterococcus hirae; assay: Antibacterial activity against Enterococcus hirae ATCC 1052 cultured in BHI medium assessed as reduction in bacterial growth incubated for 48 hrs by microbroth dilution method; assay type: functional; conditions: ATCC 1052, 48 h
[24] = tested on: Staphylococcus aureus; assay: Antibacterial activity against methicillin resistant Staphylococcus aureus 6347 cultured in MH medium assessed as reduction in bacterial growth incubated for 48 hrs by microbroth dilution method; assay type: functional; conditions: Staphylococcus aureus, 6347, 48 h
[25] = tested on: Serratia marcescens; assay: Antibacterial activity against Serratia marcescens ATCC 12795 cultured in MH medium assessed as reduction in bacterial growth incubated for 48 hrs by microbroth dilution method; assay type: functional; conditions: ATCC 12795, 48 h
[26] = tested on: Escherichia coli; assay: Antibacterial activity against Escherichia coli ATCC 8739 cultured in MH medium assessed as reduction in bacterial growth incubated for 48 hrs by microbroth dilution method; assay type: functional; conditions: ATCC 8739, 48 h
[27] = tested on: Bacillus spizizenii; assay: Antibacterial activity against Bacillus subtilis ATCC 6633 cultured in MH medium assessed as reduction in bacterial growth incubated for 48 hrs by microbroth dilution method; assay type: functional; conditions: ATCC 6633, 48 h
[28] = tested on: Staphylococcus aureus; assay: Biofilm degradation activity against Staphylococcus aureus ATCC 6538 assessed as biofilm formation at 2 times antibacterial MIC incubated for 24 hrs compound added post-biofilm formation by total biomass crystal violet staining-based method; assay type: functional
[29] = tested on: Staphylococcus aureus; assay: Antibiofilm activity against Staphylococcus aureus ATCC 6538 assessed as biofilm formation at antibacterial MIC incubated for 24 hrs compound added prior to bacterial biofilm formation by total biomass crystal violet staining-based method relative to control; assay type: functional
[30] = tested on: Pseudomonas aeruginosa; assay: Antibiofilm activity against Pseudomonas aeruginosa ATCC 9027 assessed as biofilm formation at 0.5 times antibacterial MIC incubated for 24 hrs compound added prior to bacterial biofilm formation by total biomass crystal violet staining-based method relative to control; assay type: functional
[31] = tested on: Staphylococcus aureus; assay: Antibiofilm activity against Staphylococcus aureus ATCC 6538 assessed as biofilm formation at 0.5 times antibacterial MIC incubated for 24 hrs compound added prior to bacterial biofilm formation by total biomass crystal violet staining-based method relative to control; assay type: functional
[32] = tested on: Pseudomonas aeruginosa; assay: Antibiofilm activity against Pseudomonas aeruginosa ATCC 9027 assessed as biofilm formation at antibacterial MIC incubated for 24 hrs compound added prior to bacterial biofilm formation by total biomass crystal violet staining-based method relative to control; assay type: functional
[33] = tested on: Enterococcus hirae; assay: Bactericidal activity against Enterococcus hirae ATCC 1052 cultured in BHI medium assessed as reduction in bacterial survival incubated for 48 hrs by microbroth dilution method; assay type: functional; conditions: ATCC 1052, 48 h
[34] = tested on: Staphylococcus aureus; assay: Biofilm degradation activity against Staphylococcus aureus ATCC 6538 assessed as biofilm formation at 4 times antibacterial MIC incubated for 24 hrs compound added post-biofilm formation by total biomass crystal violet staining-based method; assay type: functional
[35] = tested on: Staphylococcus aureus; assay: Biofilm degradation activity against Staphylococcus aureus ATCC 6538 assessed as biofilm formation at antibacterial MIC incubated for 24 hrs compound added post-biofilm formation by total biomass crystal violet staining-based method; assay type: functional
[36] = tested on: Streptococcus pneumoniae; assay: Bactericidal activity against Streptococcus pneumoniae cultured in MH medium assessed as reduction in bacterial survival incubated for 48 hrs by microbroth dilution method; assay type: functional
[37] = tested on: Pseudomonas aeruginosa; assay: Biofilm degradation activity against Pseudomonas aeruginosa ATCC 9027 assessed as biofilm formation at 2 times antibacterial MIC incubated for 24 hrs compound added post-biofilm formation by total biomass crystal violet staining-based method; assay type: functional
[38] = tested on: Pseudomonas aeruginosa; assay: Biofilm degradation activity against Pseudomonas aeruginosa ATCC 9027 assessed as biofilm formation at 4 times antibacterial MIC incubated for 24 hrs compound added post-biofilm formation by total biomass crystal violet staining-based method; assay type: functional
[39] = tested on: Pseudomonas aeruginosa; assay: Biofilm degradation activity against Pseudomonas aeruginosa ATCC 9027 assessed as biofilm formation at antibacterial MIC incubated for 24 hrs compound added post-biofilm formation by total biomass crystal violet staining-based method; assay type: functional

SMILES	MIC [2] [µg/mL]	MIC [3] [µg/mL]	MIC [4] [µg/mL]	MIC [6] [µg/mL]	MIC [7] [µg/mL]	MBC [8] [µg/mL]	MIC [9] [µg/mL]	MBC [10] [µg/mL]	MBC [11] [µg/mL]	MBC [13] [µg/mL]	MBC [14] [µg/mL]	MBC [15] [µg/mL]	MBC [16] [µg/mL]	MBC [17] [µg/mL]	MIC [18] [µg/mL]	log K [19]	MBC [20] [µg/mL]	MBC [22] [µg/mL]	MIC [23] [µg/mL]	MIC [24] [µg/mL]	further results
C[C@@H]1CN(c2c(F)c(N)c3c(=O)c(C(=O)O)cn(C4CC4)c3c2F)C[C@H](C)[N+]12CN1C(=N2)C(C(=O)O)=Cc2ccccc21.[Cl-] (some centres not stated)	64	> 512	16	8	32	32	8	64	32	4	128	64	4	2	2	-0.07	8	8	> 512	32	Activity [1]: 73%; Activity [5]: Non-Toxic; Activity [12]: 35%; Activity [21]: Non-Toxic; MIC [25]: 64 µg/mL; MIC [26]: 4 µg/mL; MIC [27]: 4 µg/mL
CCn1cc(C(=O)O)c(=O)c2cc(F)c(N3CCNCC3)nc21 [ENOXACIN]	0.5 (≈ 1.56 µM)	32 (≈ 99.9 µM)	0.25 (≈ 0.78 µM)	1 (≈ 3.12 µM)	1 (≈ 3.12 µM)	0.25 (≈ 0.78 µM)	0.5 (≈ 1.56 µM)	0.25 (≈ 0.78 µM)	1 (≈ 3.12 µM)	0.125 (≈ 0.39 µM)	1 (≈ 3.12 µM)	0.5 (≈ 1.56 µM)	0.5 (≈ 1.56 µM)	0.063 (≈ 0.197 µM)	0.032 (≈ 0.0999 µM)	0.1564	1 (≈ 3.12 µM)	2 (≈ 6.24 µM)	64 (≈ 200 µM)	0.5 (≈ 1.56 µM)	Activity [28]: 28%; Activity [29]: 29%; Activity [30]: 27%; Activity [31]: 27%; Activity [32]: 7%; MBC [33]: 64 µg/mL (≈ 200 µM); Activity [34]: 8%; Activity [35]: 45%; MBC [36]: > 512 µg/mL; Activity [37]: 49%; Activity [38]: 49%; MIC [25]: 0.25 µg/mL (≈ 0.78 µM); Activity [39]: 46%; MIC [26]: 0.25 µg/mL (≈ 0.78 µM); MIC [27]: 0.125 µg/mL (≈ 0.39 µM)
CCn1cc(C(=O)O)c(=O)c2cc(F)c(N3CCNC(C)C3)c(F)c21 (configuration not stated) [LOMEFLOXACIN]	1 (≈ 2.85 µM)	16 (≈ 45.5 µM)	0.25 (≈ 0.712 µM)	1 (≈ 2.85 µM)	0.5 (≈ 1.42 µM)	0.25 (≈ 0.712 µM)	1 (≈ 2.85 µM)	0.5 (≈ 1.42 µM)	1 (≈ 2.85 µM)	0.125 (≈ 0.356 µM)	1 (≈ 2.85 µM)	1 (≈ 2.85 µM)	0.125 (≈ 0.356 µM)	0.008 (≈ 0.0228 µM)	0.008 (≈ 0.0228 µM)	0.0766	1 (≈ 2.85 µM)	2 (≈ 5.69 µM)	128 (≈ 364 µM)	0.5 (≈ 1.42 µM)	Activity [28]: 12%; Activity [29]: 9%; Activity [30]: 6%; Activity [31]: 63%; Activity [32]: 2%; MBC [33]: 128 µg/mL (≈ 364 µM); Activity [34]: 6%; Activity [35]: 58%; MBC [36]: > 512 µg/mL; Activity [37]: 36%; Activity [38]: 34%; MIC [25]: 0.5 µg/mL (≈ 1.42 µM); Activity [39]: 40%; MIC [26]: 0.063 µg/mL (≈ 0.179 µM); MIC [27]: 0.125 µg/mL (≈ 0.356 µM)
